Test results reported in patent US11306078B2, “Piperidine CXCR7 receptor modulators” (IDORSIA PHARMACEUTICALS LTD., priority 2016, dated 2022).

Target: human chemokine receptor CXCR7 (Homo sapiens (Human), UniProt P25106)
Test: Tango CXCR7-bla U2OS beta-arrestin recruitment assay (beta-lactamase reporter, FRET), antagonism of CXCL12/SDF1-α;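 note: compounds preincubated 15 min before CXCL12 addition, then 22 h at 37 °C, FRET emission ratio read with CCF4-AM substrate after 2 h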
Type: cell-based
Conditions: antagonistic effect on CXCR7; Tango CXCR7-bla U2OS cells, CXCL12/SDF1-α at its EC80

human chemokine receptor CXCR7, sequence (P25106 whole entry): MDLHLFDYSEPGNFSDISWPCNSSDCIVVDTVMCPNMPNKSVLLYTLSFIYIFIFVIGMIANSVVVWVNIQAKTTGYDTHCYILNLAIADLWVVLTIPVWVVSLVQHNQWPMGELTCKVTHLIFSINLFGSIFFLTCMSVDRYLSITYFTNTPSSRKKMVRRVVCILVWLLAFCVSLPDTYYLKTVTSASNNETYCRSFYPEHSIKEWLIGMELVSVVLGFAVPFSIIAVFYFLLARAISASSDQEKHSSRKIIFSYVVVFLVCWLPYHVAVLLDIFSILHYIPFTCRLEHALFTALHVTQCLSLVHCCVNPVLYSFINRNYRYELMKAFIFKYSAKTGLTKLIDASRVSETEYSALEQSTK

O=C(N[C@@H]1CCN(C2CCCCC2)C[C@H]1C(=O)NC1CCCC1)c1cc(-c2ccc(F)cc2F)on1 (racemic) [Example 1.003, rac-(3R*,4R*)-1-Cyclohexyl-4-{[5-(2,4-difluoro-phenyl)-isoxazole-3-carbonyl]-amino}-piperidine-3-carboxylic acid cyclopentylamide]
IC50: 564 nM

CN(CCO)C(=O)[C@@H]1CN(C2CCCCC2)CC[C@H]1NC(=O)c1cc(-c2ccc(F)cc2F)on1 (racemic) [Example 1.005, rac-(3R*,4R*)-1-Cyclohexyl-4-{[5-(2,4-difluoro-phenyl)-isoxazole-3-carbonyl]-amino}-piperidine-3-carboxylic acid (2-hydroxy-ethyl)-methyl-amide]
IC50: 198 nM

COCCNC(=O)[C@@H]1CN(C2CCCCC2)CC[C@H]1NC(=O)c1cc(-c2ccc(F)cc2F)on1 (racemic) [Example 1.006, rac-(3R*,4R*)-1-Cyclohexyl-4-{[5-(2,4-difluoro-phenyl)-isoxazole-3-carbonyl]-amino}-piperidine-3-carboxylic acid (2-methoxy-ethyl)-amide]
IC50: 414 nM

CC(C)CNC(=O)[C@@H]1CN(C2CCCCC2)CC[C@H]1NC(=O)c1cc(-c2ccc(F)cc2F)on1 (racemic) [Example 1.007, rac-(3R*,4R*)-1-Cyclohexyl-4-{[5-(2,4-difluoro-phenyl)-isoxazole-3-carbonyl]-amino}-piperidine-3-carboxylic acid isobutyl-amide]
IC50: 780 nM

CC(C)NC(=O)[C@@H]1CN(C2CCCCC2)CC[C@H]1NC(=O)c1cc(-c2ccc(F)cc2F)on1 (racemic) [Example 1.008, rac-(3R*,4R*)-1-Cyclohexyl-4-{[5-(2,4-difluoro-phenyl)-isoxazole-3-carbonyl]-amino}-piperidine-3-carboxylic acid isopropylamide]
IC50: 394 nM

O=C(N[C@@H]1CCN(C2CCCCC2)C[C@H]1C(=O)NCCF)c1cc(-c2ccc(F)cc2F)on1 (racemic) [Example 1.011, rac-(3R*,4R*)-1-Cyclohexyl-4-{[5-(2,4-difluoro-phenyl)-isoxazole-3-carbonyl]-amino}-piperidine-3-carboxylic acid (2-fluoro-ethyl)-amide]
IC50: 282 nM

CCNC(=O)[C@@H]1CN(C2CCCCC2)CC[C@H]1NC(=O)c1cc(-c2ccc(F)cc2F)on1 (racemic) [Example 1.012, rac-(3R*,4R*)-1-Cyclohexyl-4-{[5-(2,4-difluoro-phenyl)-isoxazole-3-carbonyl]-amino}-piperidine-3-carboxylic acid ethylamide]
IC50: 58 nM

CN(C(=O)[C@@H]1CN(C2CCCCC2)CC[C@H]1NC(=O)c1cc(-c2ccc(F)cc2F)on1)C1CC1 (racemic) [Example 1.013, rac-(3R*,4R*)-1-Cyclohexyl-4-{[5-(2,4-difluoro-phenyl)-isoxazole-3-carbonyl]-amino}-piperidine-3-carboxylic acid cyclopropyl-methyl-amide]
IC50: 238 nM

NC(=O)CNC(=O)[C@@H]1CN(C2CCCCC2)CC[C@H]1NC(=O)c1cc(-c2ccc(F)cc2F)on1 (racemic) [Example 1.014, rac-(3R*,4R*)-1-Cyclohexyl-4-{[5-(2,4-difluoro-phenyl)-isoxazole-3-carbonyl]-amino}-piperidine-3-carboxylic acid carbamoylmethyl-amide]
IC50: 289 nM

O=C(N[C@@H]1CCN(C2CCCCC2)C[C@H]1C(=O)N1CCOCC1)c1cc(-c2ccc(F)cc2F)on1 (racemic) [Example 1.016, rac-5-(2,4-Difluoro-phenyl)-isoxazole-3-carboxylic acid [(3R*,4R*)-1-cyclohexyl-3-(morpholine-4-carbonyl)-piperidin-4-yl]-amide]
IC50: 275 nM

CC(C)N(C)C(=O)[C@@H]1CN(C2CCCCC2)CC[C@H]1NC(=O)c1cc(-c2ccc(F)cc2F)on1 (racemic) [Example 1.017, rac-(3R*,4R*)-1-Cyclohexyl-4-{[5-(2,4-difluoro-phenyl)-isoxazole-3-carbonyl]-amino}-piperidine-3-carboxylic acid isopropyl-methyl-amide]
IC50: 489 nM

CN(C)CCN(C)C(=O)[C@@H]1CN(C2CCCCC2)CC[C@H]1NC(=O)c1cc(-c2ccc(F)cc2F)on1 (racemic) [Example 1.018, rac-(3R*,4R*)-1-Cyclohexyl-4-{[5-(2,4-difluoro-phenyl)-isoxazole-3-carbonyl]-amino}-piperidine-3-carboxylic acid (2-dimethylamino-ethyl)-methyl-amide]
IC50: 317 nM

CCOCCN(C)C(=O)[C@@H]1CN(C2CCCCC2)CC[C@H]1NC(=O)c1cc(-c2ccc(F)cc2F)on1 (racemic) [Example 1.019, rac-(3R*,4R*)-1-Cyclohexyl-4-{[5-(2,4-difluoro-phenyl)-isoxazole-3-carbonyl]-amino}-piperidine-3-carboxylic acid (2-ethoxy-ethyl)-methyl-amide]
IC50: 145 nM

Cc1cc(CNC(=O)[C@@H]2CN(C3CCCCC3)CC[C@H]2NC(=O)c2cc(-c3ccc(F)cc3F)on2)no1 (racemic) [Example 1.022, rac-(3R*,4R*)-1-Cyclohexyl-4-{[5-(2,4-difluoro-phenyl)-isoxazole-3-carbonyl]-amino}-piperidine-3-carboxylic acid (5-methyl-isoxazol-3-ylmethyl)-amide]
IC50: 198 nM

CN(C)CCNC(=O)[C@@H]1CN(C2CCCCC2)CC[C@H]1NC(=O)c1cc(-c2ccc(F)cc2F)on1 (racemic) [Example 1.023, rac-(3R*,4R*)-1-Cyclohexyl-4-{[5-(2,4-difluoro-phenyl)-isoxazole-3-carbonyl]-amino}-piperidine-3-carboxylic acid (2-dimethylamino-ethyl)-amide]
IC50: 743 nM

O=C(N[C@@H]1CCN(C2CCCCC2)C[C@H]1C(=O)NCC(F)F)c1cc(-c2ccc(F)cc2F)on1 (racemic) [Example 1.026, rac-(3R*,4R*)-1-Cyclohexyl-4-{[5-(2,4-difluoro-phenyl)-isoxazole-3-carbonyl]-amino}-piperidine-3-carboxylic acid (2,2-difluoro-ethyl)-amide]
IC50: 627 nM

COCCCN(C)C(=O)[C@@H]1CN(C2CCCCC2)CC[C@H]1NC(=O)c1cc(-c2ccc(F)cc2F)on1 (racemic) [Example 1.027, rac-(3R*,4R*)-1-Cyclohexyl-4-{[5-(2,4-difluoro-phenyl)-isoxazole-3-carbonyl]-amino}-piperidine-3-carboxylic acid (3-methoxy-propyl)-methyl-amide]
IC50: 117 nM

Cc1cc(CNC(=O)[C@@H]2CN(C3CCCCC3)CC[C@H]2NC(=O)c2cc(-c3ccc(F)cc3F)on2)on1 (racemic) [Example 1.029, rac-(3R*,4R*)-1-Cyclohexyl-4-{[5-(2,4-difluoro-phenyl)-isoxazole-3-carbonyl]-amino}-piperidine-3-carboxylic acid (3-methyl-isoxazol-5-ylmethyl)-amide]
IC50: 315 nM

Cc1nc(CNC(=O)[C@@H]2CN(C3CCCCC3)CC[C@H]2NC(=O)c2cc(-c3ccc(F)cc3F)on2)cs1 (racemic) [Example 1.031, rac-(3R*,4R*)-1-Cyclohexyl-4-{[5-(2,4-difluoro-phenyl)-isoxazole-3-carbonyl]-amino}-piperidine-3-carboxylic acid (2-methyl-thiazol-4-ylmethyl)-amide]
IC50: 855 nM
